# In US7820645B2, “Crystalline forms” (AstraZeneca AB, priority 2006, dated 2010):
# Read-outs that look alike come from different tables or passages of the source.
# Tests used:
# [1] = Solubility in organic solvents (gravimetric, saturated solution from one-day slurry); type: physicochemical; conditions: for solubility at 1 day: organic solvent or mixture, thermodynamic from solid, 22° C.
# Protocol: An excess of Compound A from Example 3 above was slurried in ethyl acetate for one day. A proportion of the saturated solution was then withdrawn through a 0.5 micrometer filter to a pre-weighted E-flask. The E-flask was weighed and then opened & evaporated in air, and then dried in vacuum at 40° C. until the weight was constant. The weight of the solution, the weight of dry substance, the weight of solvent and the volume of solvent were determined (using the density of ethyl acetate at 22° C.=0.90 g/ml).
# (§1) An excess of Compound B from Example 2 above was slurried in isopropanol for one day in a closed vessel. A proportion of the saturated solution was then withdrawn through a 0.5 micrometer filter to a pre-weighted E-flask. The E-flask was weighed and then opened & evaporated in air, and then dried in vacuum at 70° C. until the weight was constant. The weight of the solution, the weight of dry substance, the weight of solvent and the volume of solvent were determined (using the density of isopropanol at 22° C.=0.79 g/ml).
# as §1, with “Compound A” for “Compound B”, “Example 6” for “Example 2”
# (§2) An excess of Compound A from Example 6 above was slurried in ethanol for one day in a closed vessel. A proportion of the saturated solution was then withdrawn through a 0.5 micrometer filter to a pre-weighed E-flask. The E-flask was weighed and then opened and evaporated in air, and then dried in vacuum at 40-50° C. until the weight was constant. The weight of the solution, the weight of dry substance, the weight of solvent and the volume of solvent were determined (using the density of ethanol at 22° C.=0.79 g/ml).
# as §2, with “in methanol” for “in ethanol”, “a pre-weighted” for “a pre-weighed”, “opened &” for “opened and”, “of methanol” for “of ethanol”
# as §1, with “Compound A” for “Compound B”, “Example 6” for “Example 2”, “in acetone” for “in isopropanol”, “of acetone” for “of isopropanol”, “22° C.=0.82” for “22° C.=0.79”
# thrombin [2] = biological target: T1, thrombin (Homo sapiens, UniProt P00734); conditions: Test A of WO 02/44145; disclosed in Example 46 of WO 02/44145; cited from earlier work
# thrombin [3] = biological target: T1, thrombin; conditions: Test D of WO 02/44145; disclosed in Example 47 of WO 02/44145; cited from earlier work
# [4] = isopropanol, Compound B from Example 2 or Compound A anhydrate from Example 6
# [5] = isopropanol, Compound B from Example 2 or Compound A anhydrate from Example 6, read-out: solubility (mg per ml isopropanol)
"solubility as weight % ([1]; acetone, Compound A from Example 6)","solubility as weight % ([1]; ethanol, Compound A from Example 6)","solubility as weight % ([1]; ethyl acetate, Compound A from Example 3)","solubility as weight % [1, 4]","solubility as weight % ([1]; methanol, Compound A from Example 6)","solubility at 1 day ([1]; acetone, Compound A from Example 6, read-out: solubility (mg per ml acetone))","solubility at 1 day ([1]; ethanol, Compound A from Example 6, read-out: solubility (mg per ml ethanol))","solubility at 1 day ([1]; ethyl acetate, Compound A from Example 3, read-out: solubility (mg per ml ethyl acetate))","solubility at 1 day [1, 5]","solubility at 1 day ([1]; methanol, Compound A from Example 6, read-out: solubility (mg per ml methanol))",Structure (SMILES),IC50 (thrombin [2]),IC50 (thrombin [3])
33 % w/w,10 % w/w,4 % w/w,2 % w/w,45 % w/w,398 mg/mL,87 mg/mL,36 mg/mL,15 mg/mL,655 mg/mL,"CO/N=C(\N)c1ccc(CNC(=O)[C@@H]2CCN2C(=O)[C@H](O)c2cc(Cl)cc(OC(F)F)c2)cc1 [Compound A, Ph(3-Cl)(5-OCHF2)—(R)CH(OH)C(O)-Aze-Pab(OMe)]",,
,,,0.4 % w/w,,,,,3 mg/mL,,"N/C(=N\O)c1ccc(CNC(=O)[C@@H]2CCN2C(=O)[C@H](O)c2cc(Cl)cc(OC(F)F)c2)cc1 [Compound B, Ph(3-Cl)(5-OCHF2)—(R)CH(OH)C(O)-Aze-Pab(OH)]",,
,,,,,,,,,,N=C(N)c1ccc(CNC(=O)[C@@H]2CCN2C(=O)[C@H](O)c2cc(Cl)cc(OC(F)F)c2)cc1 [Compound C],< 0.02 µM,< 1 µM
